Consider ten molecules from paper PMC10938758, “A phenotypic screen of the Global Health Priority Box identifies an insecticide with anthelmintic activity” (Parasites & Vectors, 2024).

Where two headings read alike, the source gives them in different places.

The subject of data set [1] is exsheathed third-stage larvae (xL3s) of Haemonchus contortus. Kind of data set: Primary screen, H. contortus larval development and phenotype (microscopy). As to the method: An established high-throughput phenotypic screening assay was used to test the anthelmintic activity of compounds on H. contortus xL3s. Compounds were assessed for motility inhibition at a concentration of 20 µM in LB*. […] A solution of LB* + 1% (v/v) DMSO was used as a negative control. Test compounds were distributed amongst one flat-bottom, 384-well microplate (cat no. 3860; Corning, Corning, NY, USA). Eighty xL3s of H. contortus in 20 µl of LB* were added to each well to give a final volume of 40 µl. The plate was then placed in a CO2 incubator (10% [v/v] CO2, 38 °C, > 90% humidity). At 90 h, worm activity was captured using a WMicroTracker ONE unit (Phylumtech, Sunchales, Santa Fe, Argentina). Over a period of 15 min, disturbance of an infrared beam in individual wells was recorded as a worm ‘activity count’. Activity counts were then normalised to the positive and negative controls using the GraphPad Prism program (v.9.1.0 GraphPad Software, San Diego, CA, USA). The screening plate was then returned to the incubator (10% [v/v] CO2, 38 °C, > 90% humidity) for an additional 72 h. At 168 h, worms were fixed with 40 µl of Lugol solution (Sigma-Aldrich, St. Louis, MO, USA). Compounds were then assessed (microscopically) for inhibition of larval development and/or induction of a non-wild-type phenotype in H. contortus worms. […] The performance of the assay was monitored using the Z′-factor [58] calculated using data for the negative (DMSO) and positive (M-666) control compounds on individual plates.

The test system of the next data set is H. contortus larvae. Briefly: H. contortus dose-response assay, larval development. The settings on record: 168 h of incubation, read-out: IC50, inhibition of H. contortus larval development. Further details: species or system Haemonchus contortus. As to the method: (§1) The dose–response assay for H. contortus followed a well-established protocol; it was employed to evaluate the potency of hit compounds against this nematode. Test compounds were assessed individually for an effect on the motility of xL3s (10-point, twofold serial dilution in LB*, 40–0.16 μM). One compound, monepantel (prepared in the same manner as the test compounds), was used as a positive control. A solution of LB* was used as a negative control. The test and positive-control compounds were arrayed in triplicate across individual flat-bottom 96-well microplates, with six wells on each plate containing the negative control. Three hundred xL3s of H. contortus in 50 μl of LB* were added to each well to give a final volume of 100 μl. Plates were then placed in a CO2 incubator (10% [v/v] CO2, 38 °C, > 90% humidity). After 168 h of incubation, worm activity was captured using a WMicroTracker ONE unit. Over a period of 15 min, disturbance of an infrared beam in individual wells was recorded as a worm activity count. Raw activity counts for each well were normalised to the negative controls. The compound concentrations were log10-transformed and fitted using a variable-slope four-parameter equation, using the ordinary least squares fit model, employing GraphPad Prism (v.9.1.0). Larval development was established at 168 h of incubation with compound, as described previously. The development inhibition and phenotypes of larvae were examined microscopically. A one-way analysis of variance (ANOVA) with a Tukey multiple comparison test or an unpaired t-test was used to establish statistically significant differences in larval motility or development.

The next data set deals with H. contortus xL3s. Kind of data set: H. contortus dose-response assay, xL3 motility. Also noted: species or system Haemonchus contortus. The settings on record: xL3s, 90 h of incubation; for IC50: read-out: IC50, H. contortus larval motility inhibition. As to the method: as §1, with “After 168 h of incubation, worm activity was captured using a WMicroTracker ONE unit.” left out

For data set [2], the system named is adult females of H. contortus. Kind of data set: Motility of H. contortus adult females (video scoring). Further details: species or system Haemonchus contortus. Particulars: 40 μM. Here is the method:
The activity of two test compounds was assessed on adult female specimens of H. contortus in an established assay. The compound was added in triplicate to the wells of a 24-well plate (Corning, USA) at a concentration of 40 μM in 500 μl of RPMI*. Two positive-control compounds, monepantel and moxidectin, and a negative control containing 1% (v/v) DMSO only were included in triplicate on the same plate. Three adult females were added to each of the triplicate wells containing either the test compound or the controls and placed in a CO2 incubator (10% [v/v] CO2, 38 °C, > 90% relative humidity) for 24 h. A video recording (30 s) of each well was taken at 3 h, 6 h, 12 h and 24 h during the total incubation period to assess the reduction in worm motility, which was scored as 3 (‘good’), 2 (‘low’), 1 (‘very low’) or 0 (‘no movement’; cf.). For each test or control compound, the motility scores for each of the triplicate wells were calculated, normalised with reference to the negative control (100% motility) and recorded as a percentage. A two-way ANOVA with a Tukey multiple comparison test was used to establish statistically significant differences in worm motility.

For the next data set, the system named is C. elegans young adults. Briefly: C. elegans dose-response assay, motility. Also noted: species or system Caenorhabditis elegans. The settings on record: 40 h of incubation. Here is the method:
The dose–response assay for C. elegans followed a well-established protocol and was employed to evaluate the potency of hit compounds against this nematode. Test and positive-control compounds as well as negative controls were prepared in 96-well microplates (cf.). One hundred C. elegans in 50 μl of LB* were added to each well to give a final volume of 100 μl. Plates were then placed in an incubator at 20 °C for 40 h. At 40 h, worm activity was captured using a WMicroTracker ONE unit. Raw activity counts for each well were normalised to the negative controls. The compound concentrations were log10-transformed and fitted using a variable-slope four-parameter equation, using the ordinary least squares fit model, employing GraphPad Prism (v.9.1.0). A one-way ANOVA with a Tukey multiple comparison test or an unpaired t-test was used to establish statistically significant differences in larval motility.

Data set [3] relates to rat hepatoma (FAO cell line) cells. Particulars: cited from earlier work.
Setting [4] is: H. contortus larvae; 20 µM; 168 h.
The mark [5] stands for this setting: Haemonchus contortus, 168 h, H. contortus, 20 µM, read-out: Larval development inhibition, %.

As usually defined, the inhibition is the drop in the measured response relative to a control, in per cent. The IC50 is the concentration at which inhibition is half-maximal.

Take `CO/N=C1\C[C@]2(C[C@@H]3C[C@@H](C/C=C(\C)C[C@@H](C)/C=C/C=C4\CO[C@@H]5[C@H](O)C(C)=C[C@@H](C(=O)O3)[C@]45O)O2)O[C@H](/C(C)=C/C(C)C)[C@H]1C` [Moxidectin, moxidectin]: in data set [1] (H. contortus; 20 µM; 168 h), the “Larval development inhibition; %” value was found to be 100%.
As to `CCOCn1c(-c2ccc(Cl)cc2)c(C#N)c(Br)c1C(F)(F)F` [MMV1577458, chlorfenapyr], in data set [1] (setting [4]), the Abnormal phenotype entry is given as “Cur” and the “Induction of an abnormal phenotype (in words)” value (“Induction” below) was “induced an abnormal phenotype”. In addition, the inhibition at 20 µM in data set [1] (setting [5]) is 100%.
For the molecule `COc1cc(/C=N/c2c(SC(F)(F)F)c(C#N)nn2-c2c(Cl)cc(C(F)(F)F)cc2Cl)ccc1O` [MMV1794214], the “Induction” value in data set [1] (setting [4]) is listed as “did not inhibit development or induce an abnormal phenotype”. For the same molecule, the IC50 is greater than 40000 nM in the data set on H. contortus larvae and 4500 ± 1100 nM with H. contortus xL3s. The “Maximum motility inhibition (MMI), H. contortus larvae” value in the data set with H. contortus xL3s was 70%. In addition, the “Reduction of motility of adult females of H. contortus” value in data set [2] (3 h) is ~ 0%; in data set [2] (6 h) it was ~ 0%; in data set [2] (12 h), roughly 23%; in data set [2] (24 h), roughly 15%.
With `CO[C@H]1C[C@H](O[C@@H]2/C(C)=C/C[C@@H]3C[C@@H](C[C@]4(CC[C@H](C)[C@@H](C5CCCCC5)O4)O3)OC(=O)[C@@H]3C=C(C)/C(=N/O)[C@H]4OC/C(=C\C=C\[C@@H]2C)[C@]43O)O[C@@H](C)[C@@H]1O` [MMV002231, selamectin], the Abnormal phenotype entry in data set [1] (setting [4]) is “Cur”. Also, the inhibition at 20 µM in data set [1] (setting [5]) is no less than 90%.
Turning to `C[C@](C#N)(COc1cc(C#N)ccc1C(F)(F)F)NC(=O)c1ccc(SC(F)(F)F)cc1` [Monepantel, monepantel], in the data set with C. elegans young adults, the “Maximum motility inhibition (MMI), C. elegans” value amounted to 95%. For the same molecule, the IC50 in the data set on C. elegans young adults (Caenorhabditis elegans, read-out: IC50, C. elegans young adult motility) worked out at 30 ± 10 nM; with H. contortus larvae (Haemonchus contortus) it was 260 ± 30 nM; in the data set with H. contortus xL3s (Haemonchus contortus), 330 ± 120 nM. In addition, the Abnormal phenotype entry in data set [1] (setting [4]) is reported as “Coi”. Moreover, the inhibition at 20 µM in data set [1] (setting [5]) came out at 100%. In addition, the “Maximum motility inhibition (MMI), H. contortus larvae” value in the data set with H. contortus xL3s was determined as 95%. Further, the “Reduction of motility of adult females of H. contortus” value in data set [2] (3 h) is ~ 0%; in data set [2] (6 h), roughly 23%; in data set [2] (12 h), roughly 66%; in data set [2] (24 h) it was roughly 100%.
As to abamectin [MMV1577454], the Abnormal phenotype entry in data set [1] (setting [4]) was “Str”.
For the molecule `O=C(Nc1ccc(Cl)c(C(F)(F)F)c1)Nc1ccc(Cl)c(C(F)(F)F)c1` [MMV027339], in data set [1] (setting [4]), the “Induction” value is “did not inhibit development or induce an abnormal phenotype”. The IC50 with H. contortus xL3s is greater than 40000 nM.
Take `CCc1nn(C)c(C(=O)NCc2ccc(Oc3ccc(C)cc3)cc2)c1Cl` [MMV688934, tolfenpyrad]: the “Respiration in FAO cells” value in data set [3] is listed as “inhibit respiration”. In addition, in data set [1] (setting [4]), the Abnormal phenotype entry was “Str” and the “Induction” value is reported as “induced an abnormal phenotype”. For the same molecule, the inhibition at 20 µM in data set [1] (Haemonchus contortus; H. contortus; 20 µM; 168 h; read-out: Larval development inhibition; %) stood at 100%.
With `C=C(C)[C@H]1Cc2c(ccc3c2O[C@@H]2COc4cc(OC)c(OC)cc4[C@@H]2C3=O)O1` [MMV002519, rotenone], in data set [1] (setting [4]), the Abnormal phenotype result is “Str” and the “Induction” value is reported as “induced an abnormal phenotype”. The inhibition at 20 µM in data set [1] (Haemonchus contortus, 168 h, read-out: Larval development inhibition; %) is 100%.
With `CO/N=C1\C[C@]2(C[C@@H]3C[C@@H](C/C=C(\C)C[C@@H](C)/C=C/C=C4\CO[C@@H]5[C@H](O)C(C)=C[C@@H](C(=O)O3)[C@]45O)O2)O[C@H](/C(C)=C/C(C)C)[C@H]1C` [MMV1633828, moxidectin], the inhibition at 20 µM in data set [1] (setting [5]) was no less than 90%.
